Measurements published in publication PMC6001238, “Iterative Chemical Engineering of Vancomycin Leads to Novel Vancomycin Analogs With a High in Vitro Therapeutic Index” (Frontiers in Microbiology, 2018).
In brackets after ≈: the same amount, converted by molar mass.

What was measured:
[1] = test system: E. faecalis VRE 37; test: MIC, broth microdilution, vancomycin-resistant E. faecalis VRE 37 (VanA); type: cell-based, Enterococcus faecalis; details: for MIC: Enterococcus faecalis VRE 37 (vancomycin-resistant), read-out: MIC
How it was run: (§1)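 Assayed by broth microdilution under CLSI antimicrobial testing rules. One case paired the analog or control drug with vancomycin at a 10 μM final concentration; water and inoculum-free broth were controls.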

[2] = test system: human cervix carcinoma (HeLa) cells; test: Cytostatic activity, HeLa cell proliferation; type: cell-based; details: mean ± SD of three experiments; highest concentration tested 250 µM; 4 days; read-out: Toxicity (IC50) HeLa
How it was run: (§2)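 Readout: Coulter cell number after drug exposure at 37°C. Durations differ by line (L1210 2 days; CEM 3 days; HeLa 4 days). Stock suspension 300,000–500,000 cells/mL, diluted by mixing with compound. Endpoint: IC50 vs negative control.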

[3] = test system: MRSA KS1; test: MIC, broth microdilution, MRSA KS1; type: cell-based, Staphylococcus aureus; details: for MIC-fold improvement vs. vancomycin: MRSA KS1, ratio of MIC of vancomycin and MIC of analogue; for MIC: Staphylococcus aureus MRSA KS1, read-out: MIC
How it was run: as §1

[4] = test system: L1210, CEM and HeLa cell lines; test: Cytostatic activity, average or summary over L1210, CEM and HeLa; type: cell-based; details: average of L1210, CEM and HeLa; read-out: Toxicity (IC50) Average
How it was run: as §2

[5] = test system: MRSA KS2; test: MIC, broth microdilution, MRSA KS2; type: cell-based, Staphylococcus aureus; details: for MIC-fold improvement vs. vancomycin: MRSA KS2, ratio of MIC of vancomycin and MIC of analogue; for MIC: Staphylococcus aureus MRSA KS2, read-out: MIC
How it was run: as §1

[6] = test system: E. faecalis VRE 53; test: MIC, broth microdilution, vancomycin-resistant E. faecalis VRE 53 (VanA); type: cell-based, Enterococcus faecalis; details: for MIC: Enterococcus faecalis VRE 53 (vancomycin-resistant), read-out: MIC; for MIC-fold improvement vs. vancomycin: VRE 53, ratio of MIC of vancomycin and MIC of analogue
How it was run: as §1

[7] = test system: S. aureus VSSA (ATCC 6538); test: MIC, broth microdilution, vancomycin-sensitive S. aureus (VSSA/MSSA, ATCC 6538); type: cell-based, Staphylococcus aureus; details: for MIC: Staphylococcus aureus VSSA, read-out: MIC; for MIC-fold improvement vs. vancomycin: VSSA, ratio of MIC of vancomycin and MIC of analogue
How it was run: as §1

[8] = test system: human T-lymphocyte (CEM) cells; test: Cytostatic activity, CEM cell proliferation; type: cell-based; details: mean ± SD of three experiments; highest concentration tested 250 µM; 3 days; read-out: Toxicity (IC50) CEM
How it was run: as §2

[9] = test system: E. faecalis VSE 1; test: MIC, broth microdilution, vancomycin-sensitive E. faecalis (VSE 1); type: cell-based, Enterococcus faecalis; details: for MIC: Enterococcus faecalis VSE 1 (vancomycin-sensitive), read-out: MIC; for MIC-fold improvement vs. vancomycin: VSE 1, ratio of MIC of vancomycin and MIC of analogue
How it was run: as §1

[10] = test system: Murine leukemia (L1210) cells; test: Cytostatic activity, L1210 cell proliferation; type: cell-based; details: mean ± SD of three experiments; highest concentration tested 250 µM; 2 days; read-out: Toxicity (IC50) L1210
How it was run: as §2

[11] = test system: MRSA KS6; test: MIC, broth microdilution, MRSA KS6; type: cell-based, Staphylococcus aureus; details: for MIC-fold improvement vs. vancomycin: MRSA KS6, ratio of MIC of vancomycin and MIC of analogue; for MIC: Staphylococcus aureus MRSA KS6, read-out: MIC
How it was run: as §1

[12] = test system: MRSA KS89; test: MIC, broth microdilution, MRSA KS89; type: cell-based, Staphylococcus aureus; details: for MIC-fold improvement vs. vancomycin: MRSA KS8, ratio of MIC of vancomycin and MIC of analogue; for MIC: Staphylococcus aureus MRSA KS8, read-out: MIC
How it was run: as §1

[13] = test system: E. faecalis VRE 6; test: MIC, broth microdilution, vancomycin-resistant E. faecalis VRE 6 (VanA); type: cell-based, Enterococcus faecalis; details: for MIC: Enterococcus faecalis VRE 6 (vancomycin-resistant), read-out: MIC; for MIC-fold improvement vs. vancomycin: VRE 6, ratio of MIC of vancomycin and MIC of analogue
How it was run: as §1

[14] = test system: S. aureus VRSA; test: MIC, broth microdilution, vancomycin-resistant S. aureus (VRSA); type: cell-based, Staphylococcus aureus; details: for MIC-fold improvement vs. vancomycin: VRSA, ratio of MIC of vancomycin and MIC of analogue
How it was run: as §1

[15] = test system: E. faecalis VRE 29; test: MIC, broth microdilution, vancomycin-resistant E. faecalis VRE 29 (VanA); type: cell-based, Enterococcus faecalis; details: for MIC: Enterococcus faecalis VRE 29 (vancomycin-resistant), read-out: MIC
How it was run: as §1

[16] = test system: S. aureus VISA/HIP5827; test: MIC, broth microdilution, vancomycin-intermediate S. aureus VISA HIP5827; type: cell-based, Staphylococcus aureus; details: for MIC: Staphylococcus aureus VISA/HIP5827, read-out: MIC; for MIC-fold improvement vs. vancomycin: VISA/HIP5827, ratio of MIC of vancomycin and MIC of analogue
How it was run: as §1

| MIC [1] [µM] | MIC-fold improvement vs. vancomycin [3] | MIC [3] [µM] | MIC-fold improvement vs. vancomycin [5] | MIC [5] [µM] | MIC [6] [µM] | MIC-fold improvement vs. vancomycin [6] | MIC [7] [µM] | MIC-fold improvement vs. vancomycin [7] | MIC [9] [µM] | MIC-fold improvement vs. vancomycin [9] | MIC-fold improvement vs. vancomycin [11] | MIC [11] [µM] | MIC-fold improvement vs. vancomycin [12] | MIC [12] [µM] | MIC [13] [µM] | Compound | IC50 [2] [µM] | IC50 [4] [µM] | IC50 [8] [µM] | IC50 [10] [µM] | also measured |
| --- | --- | --- | --- | --- | --- | --- | --- | --- | --- | --- | --- | --- | --- | --- | --- | --- | --- | --- | --- | --- | --- |
| 3.13 (≈ 5.32 µg/mL) | 8 | 0.10 (≈ 0.17 µg/mL) | 4 | 0.20 (≈ 0.34 µg/mL) | 12.5 (≈ 21.2 µg/mL) | 32 | 0.20 (≈ 0.34 µg/mL) | 4 | ≤0.05 | ≥32 | 2 | 0.39 (≈ 0.663 µg/mL) | 4 | 0.20 (≈ 0.34 µg/mL) | 0.78 (≈ 1.33 µg/mL) | CNC(CC(C)C)C(=O)NC1C(=O)NC(CC(N)=O)C(=O)NC2C(=O)NC3C(=O)NC(C(=O)NC(C(=O)NCC(=O)Nc4ccc(-c5ccc(C(C)=O)cc5)cc4)c4cc(O)cc(O)c4-c4cc3ccc4O)C(O)c3ccc(c(Cl)c3)Oc3cc2cc(c3OC2OC(CO)C(O)C(O)C2OC2CC(C)(N)C(O)C(C)O2)Oc2ccc(cc2Cl)C1O (centres unmarked) [Vanc-85] | 94 ± 12 | 44 | 5.6 ± 0.6 | 31 ± 9 | MIC-fold improvement vs. vancomycin ([1]; VRE 37, ratio of MIC of vancomycin and MIC of analogue): 128; MIC-fold improvement vs. vancomycin [13]: 256; MIC ([14]; Staphylococcus aureus VRSA, read-out: MIC): 1.56 µM (≈ 2.65 µg/mL); MIC-fold improvement vs. vancomycin [14]: 64; MIC [15]: 1.56 µM (≈ 2.65 µg/mL); MIC [16]: 0.78 µM (≈ 1.33 µg/mL); MIC-fold improvement vs. vancomycin [16]: 8 |
| 12.5 (≈ 20.8 µg/mL) | 2 | 0.39 (≈ 0.65 µg/mL) | 2 | 0.39 (≈ 0.65 µg/mL) | 25 (≈ 41.6 µg/mL) | 16 | 0.39 (≈ 0.65 µg/mL) | 2 | 0.20 (≈ 0.333 µg/mL) | 8 | 2 | 0.39 (≈ 0.65 µg/mL) | 2 | 0.39 (≈ 0.65 µg/mL) | 3.13 (≈ 5.21 µg/mL) | CNC(CC(C)C)C(=O)NC1C(=O)NC(CC(N)=O)C(=O)NC2C(=O)NC3C(=O)NC(C(=O)NC(C(=O)NCCCNC(=O)c4cc5ccccc5s4)c4cc(O)cc(O)c4-c4cc3ccc4O)C(O)c3ccc(c(Cl)c3)Oc3cc2cc(c3OC2OC(CO)C(O)C(O)C2OC2CC(C)(N)C(O)C(C)O2)Oc2ccc(cc2Cl)C1O (centres unmarked) [Vanc-26] | 42 ± 23 | 181 | > 250 | > 250 | MIC-fold improvement vs. vancomycin [13]: 64; MIC-fold improvement vs. vancomycin [14]: 32; MIC [15]: 6.25 µM (≈ 10.4 µg/mL); MIC-fold improvement vs. vancomycin ([15]; VRE 29, ratio of MIC of vancomycin and MIC of analogue): 64; MIC [16]: 0.39 µM (≈ 0.65 µg/mL); MIC-fold improvement vs. vancomycin [16]: 16 |
